Results from patent publication US9352015B2, “Antimicrobial peptides” (priority 2009, dated 2016).

Assays:
[1] = tested on: human erythrocytes; assay: Hemolytic activity against human erythrocytes (HC50 / MHC, microtiter dilution); assay type: cell-based
Procedure: Hemoglobin release was determined spectrophotometrically at 570 nm. The hemolytic activity was determined as the peptide concentration that caused 50% hemolysis of erythrocytes after 18 h (HC50). […] HC50 was determined by a plot of peptide concentration versus percent lysis.

[2] = tested on: Acinetobacter baumannii; assay type: cell-based; details: geometric mean, 11 different isolates, 24 hours at 37° C.
Procedure, shortened: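 Microtiter broth dilution in triplicate, mainly LB no-salt medium (MH or BHI in some cases), peptides serially diluted, final inoculum 5×10^5 CFU/ml (1×10^5 CFU/ml in MH variant); 24 h at 37° C. MIC is the lowest peptide concentration inhibiting growth, given in micromolar against clinical isolates.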

[3] = tested on: Pseudomonas aeruginosa; details: geometric mean, 6 different isolates, 24 hours at 37° C.

Row | SMILES | Hemolytic activity HC50 [1] | Acinetobacter baumannii MICGM [2] | Pseudomonas aeruginosa MICGM [3]
1 | CC(=O)N[C@H](CCCCN)C(=O)N[C@H](CC(C)C)C(=O)N[C@H](CCCCN)C(=O)N[C@H](CO)C(=O)N[C@H](CC(C)C)C(=O)N[C@H](CC(C)C)C(=O)N[C@H](CCCCN)C(=O)N[C@@H](C(=O)N[C@H](CC(C)C)C(=O)N[C@H](CO)C(=O)N[C@H](CCCCN)C(=O)N[C@H](CC(C)C)C(=O)N[C@H](CCCCN)C(=O)N[C@H](CCCCN)C(=O)N[C@H](CCCCN)C(=O)N[C@H](CCCCN)C(=O)N[C@H](CC(C)C)C(=O)N[C@H](CCCCN)C(=O)N[C@@H](C(=O)N[C@H](CC(C)C)C(=O)N[C@H](CC(C)C)C(=O)N[C@H](CCCCN)C(=O)N[C@H](C)C(=O)N[C@H](CC(C)C)C(=O)N[C@H](CO)C(=O)N[C@H](CCCCN)C(N)=O)[C@H](C)O)[C@H](C)O [Peptide D23, Ac-KLKSLLKTLSKLKKKKLKTLLKALSK-amide] | 186 µM | 0.8 µM | 2 µM
2 | CC(=O)N[C@H](CCCCN)C(=O)N[C@H](CC(C)C)C(=O)N[C@H](CCCCN)C(=O)N[C@H](CO)C(=O)N[C@H](CC(C)C)C(=O)N[C@H](CC(C)C)C(=O)N[C@H](CCCCN)C(=O)N[C@@H](C(=O)N[C@H](CC(C)C)C(=O)N[C@H](CO)C(=O)N[C@H](CCCCN)C(=O)N[C@H](CC(C)C)C(=O)N[C@H](CCCCN)C(=O)N[C@H](CCCCN)C(=O)N[C@H](CCCCN)C(=O)N[C@H](CCCCN)C(=O)N[C@H](CC(C)C)C(=O)N[C@H](CCCCN)C(=O)N[C@@H](C(=O)N[C@H](CC(C)C)C(=O)N[C@H](CC(C)C)C(=O)N[C@H](CCCCN)C(=O)N[C@H](CC(C)C)C(=O)N[C@H](CC(C)C)C(=O)N[C@H](CO)C(=O)N[C@H](CCCCN)C(N)=O)[C@H](C)O)[C@H](C)O [Peptide D24, Ac-KLKSLLKTLSKLKKKKLKTLLKLLSK-amide] | 123 µM | 1.9 µM | 3.9 µM
